# Patent publication US10815233B2, “Dihydroindolizinone derivative” (ONO PHARMACEUTICAL CO., LTD., priority 2014, dated 2020)
# Marks after values point to notes of the source that are not given here.
# Experiments:
# [1] = biological target: T1, human blood coagulation factor XIa (Homo sapiens, UniProt P03951); test: Inhibitory activity on human blood coagulation factor XIa (chromogenic substrate S-2366); type: biochemical; details: chromogenic substrate S-2366, 37° C.; read-out: FXIa inhibitory activity IC50
# T1 construct: human blood coagulation factor XIa (Haematologic Technologies Inc.); purchased Haematologic Technologies Inc
# Method: Inhibitory activities of the compound of the present invention on human blood coagulation factor XIa, factor VIIa, factor IXa, factor Xa, factor XIIa, plasma kallikrein and thrombin were evaluated. A chromogenic substrate solution was added to each of enzyme solutions, the absorbance at 405 nm was measured continuously at 37° C. for 5 minutes at intervals of 15 seconds, and the decomposition rate of each of substrates (mOD/min) was calculated. The half maximal (50%) inhibitory concentration (IC50) of the compound of the present invention on each of the enzymes was calculated by linear regression by using least-squares method from the concentration of the compound of the present invention which was converted in terms of natural logarithm and the rate of enzyme inhibition calculated according to the following equation.
# The rate of enzyme inhibition (%) of the compound of the present invention was calculated by using the following equation: Rate of enzyme inhibition (%)=100×{(Cont(e)−BL(e))−(Comp(e)−BL(e))/(Cont(e)−BL(e))}
# Cont (e): Decomposition rate of substrate (mOD/min) when enzyme solution and substrate solution were added to physiological saline containing 5% dimethyl sulfoxide
# Comp (e): Decomposition rate of substrate (mOD/min) when enzyme solution and substrate solution were added to physiological saline containing 5% dimethyl sulfoxide and the compound of the present invention
# The inhibitory activity on human blood coagulation factor XIa (Haematologic Technologies Inc.) was measured by using the enzyme solution adjusted to 0.1 U/mL by a buffer solution containing 300 mM of NaCl, 10 mM of KCl, 2 mg/mL of PEG 6000 and 100 mM of HEPES-NaOH (pH 7.4) as well as S-2366 (pyroglu-Pro-Arg-pNA, CHROMOGENIX) adjusted to 1 mM by distilled water.
# [2] = tested on: standard human plasma; test: Activated partial thromboplastin time (APTT) in standard human plasma; type: biochemical; details: concentration required for doubling the coagulation time vs vehicle (1% DMSO)
# Method: Activated partial thromboplastin time (APTT) and prothrombin time (PT) were measured by using a fully automatic device for measuring blood coagulation (CA-1500, Sysmex Corporation). On APTT or PT measurement, standard human plasma for the blood coagulation tests (Siemens Healthcare Diagnostics GmbH) was mixed with a diluted solution of the compound of the present invention, and thereafter, APTT reagent (Siemens Healthcare Diagnostics GmbH) and 0.02 M of calcium chloride or PT reagent (Siemens Healthcare Diagnostics GmbH) were automatically added to the mixture in order to initiate clot formation. The anticoagulation activity (APTT×2 or PT×2) of the compound of the present invention was expressed as a concentration required for doubling the coagulation time in the vehicle (1% DMSO) group. APTT×2 or PT×2 was determined by plotting the concentration of the compound of the present invention against a twofold increase in the coagulation time.
# [3] = Pharmacokinetic (PK) tests in rats; type: in vivo; details: for concentration at 8 h: male, Crj:CD(SD), oral, read-out: Plasma concentration C8h; for concentration at 8 h / AUC: rat, plasma; for AUC: po, fasted male Crj:CD(SD) rats; for APTT × 2 maintaining time: 1 mg/kg orally, period when plasma concentration exceeded APTT×2; for C8h/APTT × 2: C8h divided by APTT×2
# Method: The compound of the present invention was administered to fasted male Crj:CD(SD) rats by intravenous injection as a single intravenous dose of 0.1 mg/kg (vehicle: 20% HP-β-CD solution) and by forced oral dosage as a dose of 1 mg/kg per os (vehicle: 0.5% methylcellulose solution). Blood samples were collected from cervical vein into heparinized syringes at 0.08, 0.25, 0.5, 1, 3 or 7 hours after administration by intravenous injection or 0.08, 0.25, 0.5, 1, 2, 4, 6, 8 or 24 hours after oral administration. Plasma was obtained by centrifugation, and plasma was stored at −20° C. until measurement of plasma concentration.
# In order to measure the plasma concentration of the compound of the present invention, the plasma sample was subjected to deproteinization by using acetonitrile, was filtrated by using a filter, and thereafter, was diluted with purified water, and then was analyzed by LC/MS/MS. A column for analysis (Shim-pack XR-ODSII, 2.0 mm×75 mm, 2.2 μm) and mobile phases (0.1% formic acid in water and 0.1% formic acid in acetonitrile, flow rate: 0.5 mL/min) were used. The system was used by detection of cations in the Multiple Reaction Monitoring (MRM) mode.
# The area under the blood concentration versus time curve (AUC) and the bioavailability (BA) of the compound of the present invention were calculated. In addition, as indices of the maintaining time of the anticoagulation activity in the case of oral administration, AUC/APTT×2, which is obtained by dividing AUC by APTT×2, and C8h/APTT×2, which is obtained by dividing C8h (the plasma concentration at 8 hours after administration) by APTT×2, were calculated.
# In addition, the period of time when the compound concentration in plasma of the compound of the present invention exceeded APTT×2 (the APTT×2 maintaining time) was calculated from the change in the compound concentration in plasma in the case when the compound of the present invention was orally administered at a dose of 1 mg/kg. The longer the APTT×2 maintaining time is, the longer the period of time is when the anticoagulation activity is maintained after oral administration.
# [4] = rats, 1 mg/kg per os, 8 hours after administration
# T1 sequence (P03951 388-625 limits assumed): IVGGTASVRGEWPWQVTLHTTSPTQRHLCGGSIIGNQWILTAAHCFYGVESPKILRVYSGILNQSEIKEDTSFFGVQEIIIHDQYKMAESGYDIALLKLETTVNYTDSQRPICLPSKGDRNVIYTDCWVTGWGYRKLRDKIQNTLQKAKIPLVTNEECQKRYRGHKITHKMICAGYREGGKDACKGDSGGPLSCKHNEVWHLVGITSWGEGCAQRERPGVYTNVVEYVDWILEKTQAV
# T1 sequence (P03951 19-387 partner limits assumed): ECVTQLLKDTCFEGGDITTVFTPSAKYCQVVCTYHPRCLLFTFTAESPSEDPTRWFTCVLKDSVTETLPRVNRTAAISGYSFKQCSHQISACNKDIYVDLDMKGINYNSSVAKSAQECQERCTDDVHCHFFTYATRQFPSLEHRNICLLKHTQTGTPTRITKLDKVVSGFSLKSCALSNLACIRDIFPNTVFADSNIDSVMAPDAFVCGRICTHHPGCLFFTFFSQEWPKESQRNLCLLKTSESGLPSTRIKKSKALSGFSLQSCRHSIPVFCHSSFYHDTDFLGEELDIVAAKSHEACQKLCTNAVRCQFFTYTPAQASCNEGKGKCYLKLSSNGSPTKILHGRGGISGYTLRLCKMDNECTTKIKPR
Compound,IC50 [1] [nM],"concentration at 8 h [3, 4] [nM]",AUC ([3]; 1 mg/kg per os) [µM·h],APTT × 2 maintaining time ([3]; rats),"C8h/APTT × 2 ([3]; rats, 1 mg/kg per os)","Plasma concentration C8h [3, 4]",APTT × [2] [µM]
"Nc1ccc(-c2nc(F)c([C@@H]3CCc4cc(-c5cc(Cl)ccc5-n5cnnn5)cc(=O)n43)[nH]2)cn1 [Comparative Example 2 (5), (3S)-3-[2-(6-Amino-3-Pyridinyl)-4-Fluoro-1H-Imidazol-5-Yl]-7-[5-Chloro-2-(1H-Tetrazol-1-Yl)Phenyl]-2,3-Dihydro-5(1H)-Indolizinone]",1.6,73,1.6,<2 h,0.34,,0.21
"Nc1ccc(-c2ncc([C@@H]3CCc4cc(-c5cc(Cl)ccc5-n5cnnn5)cc(=O)n43)[nH]2)c(F)n1 [Comparative Example 2 (1), (3S)-3-[2-(6-amino-2-fluoro-3-pyridinyl)-1H-imidazol-5-yl]-7-[5-chloro-2-(1H-tetrazol-1-yl)phenyl]-2,3-dihydro-5(1H)-indolizinone]",19,,0.056,0* h,,BLQ*,4.0
"Nc1ccc(-c2[nH]c([C@@H]3CCc4cc(-c5cc(Cl)ccc5-n5cnnn5)cc(=O)n43)nc2Cl)c(F)n1 [Comparative Example 1 (2), (3S)-3-[5-(6-amino-2-fluoro-3-pyridinyl)-4-chloro-1H-imidazol-2-yl]-7-[5-chloro-2-(1H-tetrazol-1-yl)phenyl]-2,3-dihydro-5(1H)-indolizinone]",4.8,26,0.69,0* h,0.014,,1.8

# Continued, in another order:
IC50 [1] [nM],"concentration at 8 h [3, 4] [nM]",AUC ([3]; 1 mg/kg per os) [µM·h],APTT × 2 maintaining time ([3]; rats),"C8h/APTT × 2 ([3]; rats, 1 mg/kg per os)","Plasma concentration C8h [3, 4]",Compound,APTT × [2] [µM]
2.7,350,8.4,0* h,0.18,,"N#Cc1cn(-c2ccc(Cl)cc2-c2cc3n(c(=O)c2)[C@H](c2nc(Cl)c(-c4ccc(N)nc4)[nH]2)CC3)nn1 [Comparative Example 4, 1-(2-{(3S)-3-[5-(6-amino-3-pyridinyl)-4-chloro-1H-imidazol-2-yl]-5-oxo-1,2,3,5-tetrahydro-7-indolizinyl}-4-chlorophenyl)-1H-1,2,3-triazole-4-carbonitrile]",2.0
11,27,1.4,0* h,0.0073,,"Nc1ccc(-c2[nH]c([C@@H]3CCc4nc(-c5cc(Cl)ccc5-n5cnnn5)cc(=O)n43)nc2Cl)c(F)n1 [Comparative Example 3 (2), (6S)-6-[5-(6-amino-2-fluoro-3-pyridinyl)-4-chloro-1H-imidazol-2-yl]-2-[5-chloro-2-(1H-tetrazol-1-yl)phenyl]-7,8-dihydropyrrolo[1,2-a]pyrimidin-4(6H)-one]",3.7
5.4,2500,45,>8 h,1.4,,"N#Cc1cn(-c2ccc(Cl)cc2-c2cc3n(c(=O)c2)[C@H](c2nc(F)c(-c4ccc(N)cc4)[nH]2)CC3)nn1 [Example 4 (10), 1-(2-{(3S)-3-[5-(4-aminophenyl)-4-fluoro-1H-imidazol-2-yl]-5-oxo-1,2,3,5-tetrahydro-7-indolizinyl}-4-chlorophenyl)-1H-1,2,3-triazole-4-carbonitrile]",1.8
